Target: human recombinant, purified wild type His-B-Raf protein kinase (Homo sapiens, UniProt P15056)
Assay: B-Raf in vitro ELISA assay
Assay type: biochemical
Conditions: phosphorylation of MEK1; 2.5 nM B-Raf, 0.15 µM MEK1, 10 µM ATP
Text: Data was graphed and IC50s calculated using Excel Fit (Microsoft).

Chain of human recombinant, purified wild type His-B-Raf protein kinase (P15056 whole entry): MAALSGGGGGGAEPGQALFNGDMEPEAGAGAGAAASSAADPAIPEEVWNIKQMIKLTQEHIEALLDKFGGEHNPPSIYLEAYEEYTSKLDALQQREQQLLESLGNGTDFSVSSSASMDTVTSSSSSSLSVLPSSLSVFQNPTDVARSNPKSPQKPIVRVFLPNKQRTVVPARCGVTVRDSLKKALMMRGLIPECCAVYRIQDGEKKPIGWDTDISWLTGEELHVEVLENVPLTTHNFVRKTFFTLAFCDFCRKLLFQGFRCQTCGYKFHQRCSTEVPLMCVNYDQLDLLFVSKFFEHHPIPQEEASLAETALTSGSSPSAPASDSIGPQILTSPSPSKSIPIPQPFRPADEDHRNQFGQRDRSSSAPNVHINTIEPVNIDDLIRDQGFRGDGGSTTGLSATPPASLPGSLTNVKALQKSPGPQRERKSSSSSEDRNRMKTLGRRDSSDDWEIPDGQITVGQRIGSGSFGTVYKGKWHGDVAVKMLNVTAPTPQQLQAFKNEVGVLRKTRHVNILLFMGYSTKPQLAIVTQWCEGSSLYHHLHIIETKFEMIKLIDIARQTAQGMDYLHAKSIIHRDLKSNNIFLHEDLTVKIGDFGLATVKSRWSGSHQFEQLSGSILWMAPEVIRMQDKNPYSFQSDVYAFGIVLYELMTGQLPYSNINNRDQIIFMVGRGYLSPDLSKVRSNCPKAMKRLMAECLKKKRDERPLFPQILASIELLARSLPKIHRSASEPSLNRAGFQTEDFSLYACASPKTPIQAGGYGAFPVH

Q: `Cc1ccc(NC(=O)c2cccc3c2OCC3)cc1C(=O)Nc1cccnc1` [Example 9, N-{4-Methyl-3-[(pyridin-3-ylamino)carbonyl]phenyl}-2,3-dihydro-1-benzofuran-7-carboxamide] was tested. Which IC50 did it give?
A: The IC50 was 1080 nM.

Source: patent publication EP1831198B1, “PYRIDINE CARBOXAMIDE DERIVATIVES FOR USE AS ANTICANCER AGENTS” (AstraZeneca AB, priority 2004, dated 2006)
